The series can be described thus: Food effect on M2698 pharmacokinetics (fed vs fasted, single 240 mg dose). The series is classed as in vivo, human. The protocol:
Food effect was analyzed using an analysis of variance (performed on natural log-transformed values of area under the plasma concentration-time curve from time zero to infinity (AUC0-∞) and maximum plasma concentration (Cmax) including sequence, period, and fasting/fed condition as effect).
Two single doses of 240 mg M2698 were administered 7 days apart (fed then fasted states or vice versa) to assess any effect of food on pharmacokinetics; these patients then continued treatment with either 240 mg/day or 320 mg/day M2698 as part of the dose expansion cohort. (240 mg, n=7; 320 mg, n=5)
^*Fed vs fasting following single dose of 240 mg M2698. Main analysis performed on natural log-transformed values of AUC0-∞ and Cmax including sequence, period and fasting/fed condition as effect. For one of the eight evaluable patients, no AUC under fed conditions was determined.

The mark [1] stands for this setting: Fasted, single dose of 240 mg, n=8.

For `NC(=O)c1cccc2c(N[C@H](CN3CCC3)c3ccc(Cl)c(C(F)(F)F)c3)ncnc12` [M2698], the “AUC0-∞ (90% CI)” value reads like this: under setting [1], 40016.18 (22818.47–70175.36) ng.h/mL; (Fed, single dose of 240 mg, n=7) 38626.33 (21989.80–67849.37) ng.h/mL. In addition, the “Cmax (90% CI)” value runs as follows: under setting [1], 769.04 (410.14–1441.99) ng/mL; (Fed, single dose of 240 mg, n=8) 934.92 (498.61–1753.02) ng/mL. Further, the “Food effect on the exposure of M2698” value (in vivo) is on record as “no apparent food effect”. In addition, the “Cmax Fed/fasted ratio (90% CI)” value (single dose of 240 mg, p=0.3917) is 1.2157 (0.8058–1.8341) p=0.3917. Moreover, where the note is “single dose of 240 mg, p=0.6504”, the “AUC0-∞ Fed/fasted ratio (90% CI)” value is 0.9653 (0.8326–1.1191) p=0.6504.
